# Experimental data reported in ChEMBL document CHEMBL1201862, “PubChem BioAssay data set” (2004).
# Active and inactive are the calls of the source.
# Columns and labels:
# [1] = target: Peroxisome proliferator-activated receptor gamma/Nuclear receptor coactivator 3 (Homo sapiens, UniProt P37231); format: functional;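 further: agonist potency for raising coactivator recruitment to the receptor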
# [2] = target: Peroxisome proliferator-activated receptor gamma/Nuclear receptor coactivator 1 (Homo sapiens, UniProt P37231); format: functional;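 further: agonist potency as compounds enhance coactivator SRC-1 recruitment to PPARgamma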
# Chain of Peroxisome proliferator-activated receptor gamma/Nuclear receptor coactivator 1 (P37231 whole entry): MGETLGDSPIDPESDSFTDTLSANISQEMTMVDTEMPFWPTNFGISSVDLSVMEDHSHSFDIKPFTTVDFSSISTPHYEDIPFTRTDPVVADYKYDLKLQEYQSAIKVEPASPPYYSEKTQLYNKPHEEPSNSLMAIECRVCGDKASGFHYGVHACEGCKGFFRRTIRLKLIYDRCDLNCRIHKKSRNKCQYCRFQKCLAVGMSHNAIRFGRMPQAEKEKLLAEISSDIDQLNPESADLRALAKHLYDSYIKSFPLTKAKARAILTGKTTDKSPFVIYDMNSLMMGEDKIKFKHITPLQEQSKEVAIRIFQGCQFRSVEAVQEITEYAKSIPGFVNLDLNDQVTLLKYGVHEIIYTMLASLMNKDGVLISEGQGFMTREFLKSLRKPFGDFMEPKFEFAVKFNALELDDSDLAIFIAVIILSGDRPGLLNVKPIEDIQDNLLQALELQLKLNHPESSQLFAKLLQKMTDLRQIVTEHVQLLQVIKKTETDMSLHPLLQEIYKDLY
# Chain of Peroxisome proliferator-activated receptor gamma/Nuclear receptor coactivator 1 (Q15788 whole entry, further chain): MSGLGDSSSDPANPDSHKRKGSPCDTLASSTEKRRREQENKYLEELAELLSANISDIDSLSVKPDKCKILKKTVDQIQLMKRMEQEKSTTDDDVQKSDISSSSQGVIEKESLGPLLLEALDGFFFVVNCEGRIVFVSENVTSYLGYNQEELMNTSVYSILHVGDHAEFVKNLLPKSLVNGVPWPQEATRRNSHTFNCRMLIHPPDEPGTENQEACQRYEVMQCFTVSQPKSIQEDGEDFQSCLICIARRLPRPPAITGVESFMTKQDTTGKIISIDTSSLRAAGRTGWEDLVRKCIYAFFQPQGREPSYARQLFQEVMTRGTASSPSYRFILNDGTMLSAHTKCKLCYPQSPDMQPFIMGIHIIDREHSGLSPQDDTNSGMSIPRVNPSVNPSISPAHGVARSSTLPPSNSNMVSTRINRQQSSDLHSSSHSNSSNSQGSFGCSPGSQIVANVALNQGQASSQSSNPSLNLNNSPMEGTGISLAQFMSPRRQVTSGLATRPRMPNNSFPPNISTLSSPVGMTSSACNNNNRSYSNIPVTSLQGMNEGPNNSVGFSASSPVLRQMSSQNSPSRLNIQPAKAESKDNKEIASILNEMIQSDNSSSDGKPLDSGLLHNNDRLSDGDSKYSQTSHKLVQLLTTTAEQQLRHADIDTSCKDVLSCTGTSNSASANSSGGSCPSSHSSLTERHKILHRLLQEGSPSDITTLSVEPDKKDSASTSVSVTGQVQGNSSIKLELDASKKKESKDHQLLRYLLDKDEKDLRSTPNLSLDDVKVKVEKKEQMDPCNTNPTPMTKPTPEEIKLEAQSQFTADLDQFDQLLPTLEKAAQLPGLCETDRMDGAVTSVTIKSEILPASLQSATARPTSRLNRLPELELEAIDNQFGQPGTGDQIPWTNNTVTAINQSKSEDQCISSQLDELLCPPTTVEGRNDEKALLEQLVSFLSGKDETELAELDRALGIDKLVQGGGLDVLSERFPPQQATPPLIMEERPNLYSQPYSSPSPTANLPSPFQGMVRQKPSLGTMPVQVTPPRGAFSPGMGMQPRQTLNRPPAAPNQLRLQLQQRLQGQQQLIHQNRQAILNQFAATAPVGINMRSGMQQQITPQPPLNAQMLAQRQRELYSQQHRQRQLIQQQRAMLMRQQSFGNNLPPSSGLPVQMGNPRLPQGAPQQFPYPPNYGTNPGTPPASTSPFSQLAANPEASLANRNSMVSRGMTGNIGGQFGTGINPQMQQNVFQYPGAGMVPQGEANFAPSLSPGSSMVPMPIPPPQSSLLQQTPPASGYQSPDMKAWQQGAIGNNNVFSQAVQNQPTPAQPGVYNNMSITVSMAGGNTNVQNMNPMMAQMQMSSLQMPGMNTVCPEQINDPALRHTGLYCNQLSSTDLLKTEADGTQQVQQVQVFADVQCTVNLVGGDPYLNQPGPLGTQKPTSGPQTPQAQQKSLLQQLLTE
# [3] = target: Peroxisome proliferator-activated receptor gamma/Nuclear receptor coactivator 2 (Homo sapiens, UniProt P37231); format: functional;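 further: agonist potency for raising coactivator recruitment to the receptor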
# Chain of Peroxisome proliferator-activated receptor gamma/Nuclear receptor coactivator 2 (P37231 whole entry): as the sequence (P37231 whole entry) above
# Chain of Peroxisome proliferator-activated receptor gamma/Nuclear receptor coactivator 2 (Q15596 whole entry, further chain): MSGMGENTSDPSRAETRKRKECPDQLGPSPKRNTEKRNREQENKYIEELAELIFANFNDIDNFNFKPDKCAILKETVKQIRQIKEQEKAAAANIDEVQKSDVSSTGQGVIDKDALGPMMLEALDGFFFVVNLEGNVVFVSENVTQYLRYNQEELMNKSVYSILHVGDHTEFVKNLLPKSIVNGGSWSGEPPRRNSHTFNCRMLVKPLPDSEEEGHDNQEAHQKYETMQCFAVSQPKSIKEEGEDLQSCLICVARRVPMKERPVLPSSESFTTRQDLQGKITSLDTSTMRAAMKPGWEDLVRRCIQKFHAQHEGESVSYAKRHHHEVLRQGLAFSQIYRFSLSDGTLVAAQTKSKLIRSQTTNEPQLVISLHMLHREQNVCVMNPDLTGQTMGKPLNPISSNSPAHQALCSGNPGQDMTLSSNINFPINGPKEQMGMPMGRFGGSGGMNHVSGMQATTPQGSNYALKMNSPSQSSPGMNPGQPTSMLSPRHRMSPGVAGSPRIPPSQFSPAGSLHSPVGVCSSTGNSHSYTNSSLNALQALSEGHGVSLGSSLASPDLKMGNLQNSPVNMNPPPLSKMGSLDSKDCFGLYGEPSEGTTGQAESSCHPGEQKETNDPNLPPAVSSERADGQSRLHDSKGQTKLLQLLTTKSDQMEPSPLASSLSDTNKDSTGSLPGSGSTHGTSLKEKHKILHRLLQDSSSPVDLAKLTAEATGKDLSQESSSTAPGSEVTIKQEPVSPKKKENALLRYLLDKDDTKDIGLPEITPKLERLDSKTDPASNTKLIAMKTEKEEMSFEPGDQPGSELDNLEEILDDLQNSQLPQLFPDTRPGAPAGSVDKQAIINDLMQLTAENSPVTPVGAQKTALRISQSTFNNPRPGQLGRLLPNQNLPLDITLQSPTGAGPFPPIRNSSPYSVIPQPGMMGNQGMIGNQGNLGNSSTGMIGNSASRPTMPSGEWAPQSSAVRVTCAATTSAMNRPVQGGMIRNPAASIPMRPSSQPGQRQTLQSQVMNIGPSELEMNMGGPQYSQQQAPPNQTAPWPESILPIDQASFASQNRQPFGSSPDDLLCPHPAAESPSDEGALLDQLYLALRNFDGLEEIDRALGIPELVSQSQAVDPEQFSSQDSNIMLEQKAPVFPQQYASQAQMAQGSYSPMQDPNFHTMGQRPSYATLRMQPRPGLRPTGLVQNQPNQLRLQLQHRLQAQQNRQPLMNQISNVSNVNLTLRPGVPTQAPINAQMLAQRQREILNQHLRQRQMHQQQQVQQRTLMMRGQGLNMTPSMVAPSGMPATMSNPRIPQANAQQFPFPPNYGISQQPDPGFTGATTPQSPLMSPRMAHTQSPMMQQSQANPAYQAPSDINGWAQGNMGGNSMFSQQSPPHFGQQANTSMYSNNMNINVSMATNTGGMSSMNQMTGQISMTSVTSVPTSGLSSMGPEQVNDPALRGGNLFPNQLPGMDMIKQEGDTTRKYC
# [4] = target: Polyadenylate-binding protein 1 (Homo sapiens, UniProt P11940); experiment: blockers of PABP interaction with poly(A) – biochemical, fluorescence polarization, […] (AID 2014)
# Chain of Polyadenylate-binding protein 1 (P11940 whole entry): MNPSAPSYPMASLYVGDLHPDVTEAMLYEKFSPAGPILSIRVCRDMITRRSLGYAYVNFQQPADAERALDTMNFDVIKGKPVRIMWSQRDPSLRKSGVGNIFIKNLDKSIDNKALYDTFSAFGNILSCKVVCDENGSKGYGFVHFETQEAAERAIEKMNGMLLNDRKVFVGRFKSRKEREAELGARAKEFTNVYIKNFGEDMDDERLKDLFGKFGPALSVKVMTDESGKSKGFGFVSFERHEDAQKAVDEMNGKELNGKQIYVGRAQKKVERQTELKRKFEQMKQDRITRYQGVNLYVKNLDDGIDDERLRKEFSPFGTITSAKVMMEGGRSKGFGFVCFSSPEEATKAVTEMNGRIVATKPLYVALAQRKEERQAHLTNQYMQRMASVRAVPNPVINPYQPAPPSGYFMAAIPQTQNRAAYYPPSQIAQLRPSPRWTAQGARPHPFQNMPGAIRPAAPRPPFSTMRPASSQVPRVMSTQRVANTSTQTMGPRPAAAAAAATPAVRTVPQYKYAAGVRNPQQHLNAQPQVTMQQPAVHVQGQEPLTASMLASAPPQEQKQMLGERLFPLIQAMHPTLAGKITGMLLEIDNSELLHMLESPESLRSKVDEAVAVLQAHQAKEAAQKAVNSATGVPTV
# [5] = target: Eukaryotic translation initiation factor 4H (Homo sapiens, UniProt Q15056); experiment: eIF4H binding inhibition – biochemical, uHTS, fluorescence polarization, translation initiation inhibitor project, primary screen (AID 2012)
# Trypsin = Trypsin (Sus scrofa, UniProt P00761); experiment: trypsin protease activity blockade – biochemical, quenched peptide fluorescence, cherry-pick, selectivity assay for Rce1 protease inhibitor project, dose response (AID 488789)
# CAAX prenyl protease 2 = target: T1, CAAX prenyl protease 2 (Saccharomyces cerevisiae S288c, UniProt Q03530); format: biochemical
# T1 sequence (Q03530 whole entry): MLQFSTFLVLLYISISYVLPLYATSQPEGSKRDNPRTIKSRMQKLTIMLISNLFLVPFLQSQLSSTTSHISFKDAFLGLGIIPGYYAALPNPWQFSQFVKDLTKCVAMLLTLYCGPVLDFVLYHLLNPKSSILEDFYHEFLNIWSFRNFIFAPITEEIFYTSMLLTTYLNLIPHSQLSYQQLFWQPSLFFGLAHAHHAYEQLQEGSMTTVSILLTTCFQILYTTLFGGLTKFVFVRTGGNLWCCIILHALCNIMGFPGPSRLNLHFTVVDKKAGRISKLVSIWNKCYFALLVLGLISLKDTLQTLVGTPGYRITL
# Estrogen receptor = target: T2, Estrogen receptor (Homo sapiens, UniProt P03372); experiment: blockers of SRC-3 recruitment to ERα – biochemical, ELISA, streptavidin-HRP readout, orthogonal assay, confirmation (AID 1079)
# T2 sequence (P03372 whole entry): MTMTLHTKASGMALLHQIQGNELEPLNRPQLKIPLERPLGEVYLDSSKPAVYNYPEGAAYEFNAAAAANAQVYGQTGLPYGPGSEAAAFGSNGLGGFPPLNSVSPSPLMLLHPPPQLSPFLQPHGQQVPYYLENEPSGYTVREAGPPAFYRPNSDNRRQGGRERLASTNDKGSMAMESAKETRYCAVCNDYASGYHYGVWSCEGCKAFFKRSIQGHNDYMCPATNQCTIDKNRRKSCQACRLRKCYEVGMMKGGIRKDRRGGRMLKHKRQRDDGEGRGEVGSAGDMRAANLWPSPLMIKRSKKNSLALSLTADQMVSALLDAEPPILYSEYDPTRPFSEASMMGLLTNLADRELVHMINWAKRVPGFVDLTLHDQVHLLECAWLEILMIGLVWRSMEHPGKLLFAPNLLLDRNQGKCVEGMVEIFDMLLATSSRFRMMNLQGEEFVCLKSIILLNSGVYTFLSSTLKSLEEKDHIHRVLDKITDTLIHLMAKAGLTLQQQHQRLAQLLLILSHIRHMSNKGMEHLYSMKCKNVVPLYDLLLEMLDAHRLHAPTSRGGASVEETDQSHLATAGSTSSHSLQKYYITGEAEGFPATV
# [6] = antiviral protection against BTV-induced cell death – arbovirus, BSR cells, confirmation (AID 1250); format: functional;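 further: protection from viral cytopathic effect measured as cell viability by ATP luminescence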
# [7] = target: T3, Heat shock factor protein 1 (Mus musculus, UniProt P38532); experiment: decrease of HSF1-responsive luciferase luminescence – cell-based, NIH3T3, dose retest, confirmation (AID 2382); format: functional;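 further: NIH3T3 fibroblasts with HSF1-driven luciferase reporter stressed by proteasome inhibitor MG132; luminescence from HSF1-driven luciferase expression after 8 hours of MG132 stress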
# T3 sequence (P38532 whole entry): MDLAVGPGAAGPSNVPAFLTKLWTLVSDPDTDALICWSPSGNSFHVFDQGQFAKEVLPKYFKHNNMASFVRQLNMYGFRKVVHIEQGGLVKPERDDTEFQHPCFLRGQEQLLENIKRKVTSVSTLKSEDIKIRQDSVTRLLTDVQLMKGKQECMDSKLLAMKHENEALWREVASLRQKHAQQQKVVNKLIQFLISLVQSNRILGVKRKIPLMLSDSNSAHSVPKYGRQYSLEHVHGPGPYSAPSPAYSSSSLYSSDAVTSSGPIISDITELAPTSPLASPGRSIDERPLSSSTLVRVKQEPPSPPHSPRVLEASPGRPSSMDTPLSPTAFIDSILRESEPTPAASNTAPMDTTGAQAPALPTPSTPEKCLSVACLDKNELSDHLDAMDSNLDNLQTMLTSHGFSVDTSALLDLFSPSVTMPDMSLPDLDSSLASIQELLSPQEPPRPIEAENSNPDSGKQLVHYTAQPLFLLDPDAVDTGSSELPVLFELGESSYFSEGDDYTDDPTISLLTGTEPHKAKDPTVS
# Cytochrome P450 3A4 = Cytochrome P450 3A4 (Homo sapiens, UniProt P08684); settings: Potency;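 further: confirmatory qHTS run detecting inhibitors and substrates of CYP3A4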
# Cytochrome P450 2D6 = Cytochrome P450 2D6 (Homo sapiens, UniProt P10635); experiment: qHTS Assay for Inhibitors and Substrates of Cytochrome P450 2D6. [Related pubchem assays: 410 ]; format: ADME; settings: read-out: Potency
# Chain of Cytochrome P450 2D6 (P10635 whole entry): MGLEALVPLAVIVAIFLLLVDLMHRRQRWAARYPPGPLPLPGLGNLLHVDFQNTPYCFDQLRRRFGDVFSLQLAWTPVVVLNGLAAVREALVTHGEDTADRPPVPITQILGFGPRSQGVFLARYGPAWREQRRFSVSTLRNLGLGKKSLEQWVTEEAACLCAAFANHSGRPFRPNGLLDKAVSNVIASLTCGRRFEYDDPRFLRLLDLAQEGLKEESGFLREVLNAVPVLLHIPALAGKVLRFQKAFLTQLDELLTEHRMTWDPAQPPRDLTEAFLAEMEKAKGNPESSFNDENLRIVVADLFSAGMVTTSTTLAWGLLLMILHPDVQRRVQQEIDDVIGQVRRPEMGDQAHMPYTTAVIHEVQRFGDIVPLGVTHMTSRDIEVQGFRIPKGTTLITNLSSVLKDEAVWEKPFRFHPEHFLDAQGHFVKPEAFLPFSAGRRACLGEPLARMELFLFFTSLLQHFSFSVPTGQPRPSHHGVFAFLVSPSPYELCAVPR
# Cytochrome P450 1A2 = target: T4, Cytochrome P450 1A2 (Homo sapiens, UniProt P05177);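 further: PubChem cytochrome P450 panel assay, CYP1A2 panel member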
# T4 sequence (P05177 whole entry): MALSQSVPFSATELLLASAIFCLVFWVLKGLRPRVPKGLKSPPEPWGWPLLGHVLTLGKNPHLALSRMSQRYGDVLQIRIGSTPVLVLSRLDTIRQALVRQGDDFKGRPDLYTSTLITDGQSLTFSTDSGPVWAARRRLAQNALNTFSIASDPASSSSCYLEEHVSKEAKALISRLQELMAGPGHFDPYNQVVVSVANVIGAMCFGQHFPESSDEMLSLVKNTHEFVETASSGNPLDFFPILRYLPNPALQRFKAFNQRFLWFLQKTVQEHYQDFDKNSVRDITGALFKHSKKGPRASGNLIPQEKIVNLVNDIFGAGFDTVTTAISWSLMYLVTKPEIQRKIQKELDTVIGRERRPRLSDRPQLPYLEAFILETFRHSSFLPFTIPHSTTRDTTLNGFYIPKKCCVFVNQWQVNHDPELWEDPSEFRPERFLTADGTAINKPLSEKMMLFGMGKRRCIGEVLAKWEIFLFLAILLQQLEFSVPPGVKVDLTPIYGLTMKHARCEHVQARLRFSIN
# Cytochrome P450 2C19 = Cytochrome P450 2C19 (Homo sapiens, UniProt P33261); experiment: Cytochrome panel assay with activity outcomes. Panel member name: p450-cyp2c19 Compounds with AC50 equal or less than 10 uM are considered active; format: functional; settings: read-out: AC50
# Nonstructural protein 1 = Nonstructural protein 1 (Influenza A virus, UniProt Q194T2); format: functional, Influenza A virus (A/California/07/2009(H1N1))
# INS1 = experiment: INS-1E survival protection against cytokine death – cell-based, luminescence, retest, dose response (AID 449756); format: functional; settings: Rattus norvegicus;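 further: cell death triggered by IL-1 beta plus TNF-alpha plus IFN-gamma mixture; protective hits raise ATP signal compared with cytokine alone wells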
# [8] = target: T5, Histone-lysine N-methyltransferase NSD2 (Homo sapiens, UniProt O96028); format: biochemical
# T5 sequence (O96028 whole entry): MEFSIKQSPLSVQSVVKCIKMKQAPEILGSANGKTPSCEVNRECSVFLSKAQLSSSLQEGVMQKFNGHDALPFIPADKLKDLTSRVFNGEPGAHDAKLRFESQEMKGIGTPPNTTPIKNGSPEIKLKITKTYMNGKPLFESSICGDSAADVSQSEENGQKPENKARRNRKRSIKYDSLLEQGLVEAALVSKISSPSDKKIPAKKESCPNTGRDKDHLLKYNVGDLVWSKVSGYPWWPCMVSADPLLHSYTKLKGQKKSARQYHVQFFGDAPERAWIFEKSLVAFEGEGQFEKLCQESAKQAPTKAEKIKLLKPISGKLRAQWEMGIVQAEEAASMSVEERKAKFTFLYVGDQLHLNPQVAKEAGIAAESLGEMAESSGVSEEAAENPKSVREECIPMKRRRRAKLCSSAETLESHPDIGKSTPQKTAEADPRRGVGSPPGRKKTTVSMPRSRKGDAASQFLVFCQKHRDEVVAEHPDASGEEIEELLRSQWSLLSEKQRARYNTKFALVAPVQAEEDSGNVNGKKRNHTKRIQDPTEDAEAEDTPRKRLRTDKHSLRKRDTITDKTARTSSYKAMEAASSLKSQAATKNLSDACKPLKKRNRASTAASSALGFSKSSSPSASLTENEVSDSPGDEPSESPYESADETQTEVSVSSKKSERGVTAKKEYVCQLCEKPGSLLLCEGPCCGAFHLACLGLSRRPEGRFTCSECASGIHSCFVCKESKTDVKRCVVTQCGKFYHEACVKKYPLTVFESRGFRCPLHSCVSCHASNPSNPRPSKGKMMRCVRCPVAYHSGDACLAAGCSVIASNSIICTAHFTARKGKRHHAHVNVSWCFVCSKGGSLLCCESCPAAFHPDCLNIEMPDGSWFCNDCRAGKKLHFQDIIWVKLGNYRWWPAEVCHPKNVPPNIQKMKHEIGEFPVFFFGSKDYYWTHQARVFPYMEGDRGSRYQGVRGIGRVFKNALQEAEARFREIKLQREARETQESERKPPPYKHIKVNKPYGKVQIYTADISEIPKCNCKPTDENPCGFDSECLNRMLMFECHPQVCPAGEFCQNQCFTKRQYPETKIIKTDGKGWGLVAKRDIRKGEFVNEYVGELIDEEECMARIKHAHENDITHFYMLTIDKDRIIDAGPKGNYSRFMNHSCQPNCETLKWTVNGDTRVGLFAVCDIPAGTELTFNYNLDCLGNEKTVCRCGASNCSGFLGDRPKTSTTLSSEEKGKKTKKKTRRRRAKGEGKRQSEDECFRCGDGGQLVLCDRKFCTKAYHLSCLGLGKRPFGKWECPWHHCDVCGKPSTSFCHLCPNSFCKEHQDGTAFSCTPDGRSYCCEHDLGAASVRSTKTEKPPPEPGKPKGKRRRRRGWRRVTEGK
# [9] = target: T6, Mannose-6-phosphate isomerase (Homo sapiens, UniProt P34949); experiment: MPI inhibition at elevated mannose 6-phosphate – biochemical, fluorescence intensity, high mannose 6-phosphate, primary screen (AID 1220)
# T6 sequence (P34949 whole entry): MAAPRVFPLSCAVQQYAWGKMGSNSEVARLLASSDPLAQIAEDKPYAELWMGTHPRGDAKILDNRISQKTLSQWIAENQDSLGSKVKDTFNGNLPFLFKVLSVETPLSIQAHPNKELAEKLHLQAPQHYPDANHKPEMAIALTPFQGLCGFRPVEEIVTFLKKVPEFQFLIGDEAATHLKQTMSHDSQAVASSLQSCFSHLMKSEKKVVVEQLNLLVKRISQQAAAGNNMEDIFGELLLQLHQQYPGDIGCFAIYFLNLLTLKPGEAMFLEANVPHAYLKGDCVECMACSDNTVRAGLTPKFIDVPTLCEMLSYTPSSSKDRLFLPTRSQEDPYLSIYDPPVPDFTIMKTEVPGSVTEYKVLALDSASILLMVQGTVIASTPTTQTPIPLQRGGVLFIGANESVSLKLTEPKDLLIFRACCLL
# cells [10] = format: functional, cell-based
# cells [11] = format: functional, cell-based; remark: listed apart in the source
# Large T antigen = Large T antigen (Simian virus 40, UniProt P03070); format: functional, Betapolyomavirus macacae;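 further: Confirmatory-stage PubChem screen for compounds that inhibit SV40 T antigen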
# [12] = mitochondrial function rescue without frataxin homolog – Friedreich's ataxia, plus single-dose screen, dose response (AID 1465); format: functional;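 further: yeast depleted of Yfh1p frataxin homolog grown on glycerol needing respiration; WST-1 tetrazolium dye reduction as measure of cellular dehydrogenase metabolic activity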
smiles,measurement,setting,value
CCCNC(=O)C(CC)NS(=O)(=O)c1ccc(OC)cc1 (configuration not stated),EC50,[1],> 79.4 µM (not active)
same,EC50,[2],> 79.4 µM (not active)
same,EC50,[3],> 79.4 µM (not active)
CCC(c1nnc(SCCNCCO)n1CCN1CCOCC1)N(C)C (configuration not stated),IC50,[4],7.33 µM (active)
same,IC50,[5],> 100 µM (inactive)
Nc1ccc2c(C(F)(F)F)cc(C(F)(F)F)nc2n1,AC50,Trypsin,10.7 µM (active)
same,AC50,CAAX prenyl protease 2,> 100 µM (inactive)
O=C(CCCCCn1c(=S)[nH]c2ccccc2c1=O)N1CCC(O)(c2ccc(Cl)cc2)CC1,IC50,Estrogen receptor,0.08 µM (not active)
Cc1ccc2nc(NC(=O)C3=NN(c4ccccc4)C(=O)CC3)sc2c1,IC50,[6],29 µM (active)
c1ccc(-c2ccc(-c3cn4c(n3)CCC4)cc2)cc1,AC50,Trypsin,2.37 µM (active)
same,AC50,CAAX prenyl protease 2,4.15 µM (active)
O=C(CCCn1c(=S)[nH]c2ccccc2c1=O)N1CCN(c2cccc3ccccc23)CC1,IC50,Estrogen receptor,0.07 µM (not active)
CC(C)Oc1ccc(OCCSc2nc3ccccc3n2CC(=O)O)cc1,IC50,[4],11.5 µM (active)
same,IC50,[5],> 100 µM (inactive)
same,EC50,[7],> 195 µM (not active)
CCCCCCC1=Cc2cc(OC)c(OC)cc2C(C(C(C)=O)C(=O)OCC)O1 (configuration not stated),AC50,Cytochrome P450 3A4,3.16 µM (inconclusive)
same,AC50,Cytochrome P450 2D6,6.31 µM (inconclusive)
CCOC(=O)CC(=O)CSc1nc(-c2ccccc2)cc(-c2ccc(Cl)cc2)c1C#N,EC50,[1],18.7 µM (not active)
same,EC50,[2],16.4 µM (not active)
same,AC50,Cytochrome P450 1A2,2.24 µM (inconclusive)
same,EC50,[3],14.8 µM (not active)
same,AC50,Cytochrome P450 2C19,7.08 µM (inconclusive)
Oc1cccc(/C=N/NC(=S)Nc2cccnc2)c1O,IC50,Nonstructural protein 1,1.83 µM (active)
same,AC50,INS1,0.976 µM (active)
same,AC50,[8],12.4 µM (active)
same,IC50,[9],16.1 µM (active)
same,EC50,cells [10],13.6 µM (active)
same,EC50,cells [11],83 µM (active)
same,IC50,Large T antigen,15 µM (active)
same,EC50,[12],> 100 µM (active)
O=c1c(O)c(-c2ccc(O)cc2)oc2cc(O)ccc12 [RESOKAEMPFEROL],AC50,Cytochrome P450 3A4,39.8 µM (inconclusive)
same,AC50,Cytochrome P450 2D6,20 µM (inconclusive)
